# Experimental data taken from patent US20220008359A1, “COMBINATION ANTI-CANCER PRODUCTS AND METHODS” (priority 2020, published 2022).
# Marks after values point to notes of the source that are not given here.
# System: ZR75-1 cells
# Experiment: Immuno-staining of protein expression and protein phosphorylation, ZR75-1 cells
# Format: cell-based
# Design: ATM level / P-317 (ULK1) level / Beclin1 level / ATG5 level / HDAC8 level / BIM level: scale not given here
# Protocol: ZR75-1 and MCF7 cells were treated with vehicle control, GZ17-6.02, Palbociclib or the drugs combined for 3 hours and for 6 hours. Cells were fixed in place and immuno-staining performed with in house validated antibodies to detect protein expression and protein phosphorylation.
structure (smiles),measurement,setting,value
"CC(=O)c1c(C)c2cnc(Nc3ccc(N4CCNCC4)cn3)nc2n(C2CCCC2)c1=O [PALBO, Palbociclib]",AKT level,"ZR75, 3 h",100
same,AMPKa level,"ZR75, 3 h",100
same,ATG5 level,"ZR75, 3 h",107
same,ATG13 level,"ZR75, 3 h",101
same,ATM level,"ZR75, 3 h",99
same,BAK level,"ZR75, 3 h",107
same,BAX level,"ZR75, 3 h",106
same,BCL-XL level,"ZR75, 3 h",94
same,BIM level,"ZR75, 3 h",109
same,Beclin1 level,"ZR75, 3 h",112
same,CD95 level,"ZR75, 3 h",100
same,CHOP level,"ZR75, 3 h",107
same,Cyclin D level,"ZR75, 3 h",108
same,Cyclin E level,"ZR75, 3 h",103
same,ER level,"ZR75, 3 h",100
same,ERBB1 level,"ZR75, 3 h",99
same,ERBB2 level,"ZR75, 3 h",99
same,ERBB3 level,"ZR75, 3 h",100
same,ERK1/2 level,"ZR75, 3 h",100
same,ERK2 level,"ZR75, 3 h",100
same,ERRB4 level,"ZR75, 3 h",100
same,FAS-L level,"ZR75, 3 h",108
same,GRP78 level,"ZR75, 3 h",108
same,HDAC1 level,"ZR75, 3 h",101
same,HDAC2 level,"ZR75, 3 h",99
same,HDAC3 level,"ZR75, 3 h",96
same,HDAC4 level,"ZR75, 3 h",100
same,HDAC5 level,"ZR75, 3 h",98
same,HDAC6 level,"ZR75, 3 h",99
same,HDAC7 level,"ZR75, 3 h",101
same,HDAC8 level,"ZR75, 3 h",100
same,HDAC9 level,"ZR75, 3 h",101
same,HDAC10 level,"ZR75, 3 h",98
same,HDAC11 level,"ZR75, 3 h",96
same,IDO1 level,"ZR75, 3 h",96
same,JAK2 level,"ZR75, 3 h",100
same,JNK1/2 level,"ZR75, 3 h",100
same,LATS1/2 level,"ZR75, 3 h",98
same,MCL1 level,"ZR75, 3 h",96
same,MHCA level,"ZR75, 3 h",102
same,NEDD4 level,"ZR75, 3 h",100
same,NFkB level,"ZR75, 3 h",100
same,ODC level,"ZR75, 3 h",100
same,P-89 (TAZ) level,"ZR75, 3 h",101
same,P-109 (YAP) level,"ZR75, 3 h",101
same,P-127 (YAP) level,"ZR75, 3 h",100
same,P-317 (ULK1) level,"ZR75, 3 h",112
same,P-397 (YAP) level,"ZR75, 3 h",98
same,P-757 (ULK1) level,"ZR75, 3 h",96
same,P-909 (LATS1/2) level,"ZR75, 3 h",98
same,P-1079 (LATS1/2) level,"ZR75, 3 h",101
same,P-AMPKa level,"ZR75, 3 h",115#
same,P-ATG13 level,"ZR75, 3 h",113#
same,P-ATM level,"ZR75, 3 h",106
same,P-ERBB1 level,"ZR75, 3 h",101
same,P-ERBB2 level,"ZR75, 3 h",96
same,P-ERBB3 level,"ZR75, 3 h",115#
same,P-ERBB4 level,"ZR75, 3 h",107
same,P-ERK level,"ZR75, 3 h",97
same,P-JAK2 level,"ZR75, 3 h",100
same,P-JNK level,"ZR75, 3 h",90
same,P-KIT level,"ZR75, 3 h",100
same,P-MET level,"ZR75, 3 h",101
same,P-NFkB level,"ZR75, 3 h",100
same,P-PDGFRb level,"ZR75, 3 h",100
same,P-PERK level,"ZR75, 3 h",111
same,P-S2448 (mTOR) level,"ZR75, 3 h",97
same,P-S2481 (mTOR) level,"ZR75, 3 h",96
same,P-T308 (AKT) level,"ZR75, 3 h",106
same,P-Y694 (STAT5) level,"ZR75, 3 h",100
same,P-Y705 (STAT3) level,"ZR75, 3 h",99
same,P-eIF2a level,"ZR75, 3 h",110
same,P-p38 level,"ZR75, 3 h",101
same,P-p70 T389 level,"ZR75, 3 h",100
same,PD-L1 level,"ZR75, 3 h",100
same,PD-L2 level,"ZR75, 3 h",100
same,PDGFRb level,"ZR75, 3 h",100
same,PERK level,"ZR75, 3 h",101
same,PP1 level,"ZR75, 3 h",99
same,PTEN level,"ZR75, 3 h",101
same,STAT3 level,"ZR75, 3 h",100
same,STAT5 level,"ZR75, 3 h",100
same,TAZ level,"ZR75, 3 h",100
same,ULK1 level,"ZR75, 3 h",100
same,Y416 (c-SRC) level,"ZR75, 3 h",101
same,Y527 (c-SRC) level,"ZR75, 3 h",99
same,YAP level,"ZR75, 3 h",98
same,c-KIT level,"ZR75, 3 h",100
same,c-MET level,"ZR75, 3 h",100
same,c-SRC level,"ZR75, 3 h",101
same,eIF2a level,"ZR75, 3 h",99
same,mTOR level,"ZR75, 3 h",101
same,p38 level,"ZR75, 3 h",100
same,p70 S6K level,"ZR75, 3 h",100
same,P-ERBB3 level,"ZR75, 3 h, listed as Palbo",115
same,AKT level,"ZR75, 6 h",101
same,AMPKa level,"ZR75, 6 h",100
same,ATG5 level,"ZR75, 6 h",114#
same,ATG13 level,"ZR75, 6 h",100
same,ATM level,"ZR75, 6 h",100
same,BAK level,"ZR75, 6 h",109
same,BAX level,"ZR75, 6 h",108
same,BCL-XL level,"ZR75, 6 h",91
same,BIM level,"ZR75, 6 h",113#
same,Beclin1 level,"ZR75, 6 h",118#
same,CD95 level,"ZR75, 6 h",101
same,CHOP level,"ZR75, 6 h",109
same,Cyclin D level,"ZR75, 6 h",107
same,Cyclin E level,"ZR75, 6 h",105
same,ER level,"ZR75, 6 h",99
same,ERBB1 level,"ZR75, 6 h",100
same,ERBB2 level,"ZR75, 6 h",100
same,ERBB3 level,"ZR75, 6 h",99
same,ERK1/2 level,"ZR75, 6 h",100
same,ERK2 level,"ZR75, 6 h",99
same,ERRB4 level,"ZR75, 6 h",99
same,FAS-L level,"ZR75, 6 h",109
same,GRP78 level,"ZR75, 6 h",112
same,HDAC1 level,"ZR75, 6 h",102
same,HDAC2 level,"ZR75, 6 h",95
same,HDAC3 level,"ZR75, 6 h",97
same,HDAC4 level,"ZR75, 6 h",100
same,HDAC5 level,"ZR75, 6 h",101
same,HDAC6 level,"ZR75, 6 h",98
same,HDAC7 level,"ZR75, 6 h",102
same,HDAC8 level,"ZR75, 6 h",99
same,HDAC9 level,"ZR75, 6 h",101
same,HDAC10 level,"ZR75, 6 h",100
same,HDAC11 level,"ZR75, 6 h",100
same,IDO1 level,"ZR75, 6 h",100
same,JAK2 level,"ZR75, 6 h",100
same,JNK1/2 level,"ZR75, 6 h",100
same,LATS1/2 level,"ZR75, 6 h",99
same,MCL1 level,"ZR75, 6 h",91
same,MHCA level,"ZR75, 6 h",103
same,NEDD4 level,"ZR75, 6 h",97
same,NFkB level,"ZR75, 6 h",101
same,ODC level,"ZR75, 6 h",98
same,P-89 (TAZ) level,"ZR75, 6 h",101
same,P-109 (YAP) level,"ZR75, 6 h",105
same,P-127 (YAP) level,"ZR75, 6 h",106
same,P-317 (ULK1) level,"ZR75, 6 h",114#
same,P-397 (YAP) level,"ZR75, 6 h",99
same,P-757 (ULK1) level,"ZR75, 6 h",97
same,P-909 (LATS1/2) level,"ZR75, 6 h",109
same,P-1079 (LATS1/2) level,"ZR75, 6 h",102
same,P-AMPKa level,"ZR75, 6 h",117#
same,P-ATG13 level,"ZR75, 6 h",121#
same,P-ATM level,"ZR75, 6 h",109
same,P-ERBB1 level,"ZR75, 6 h",100
same,P-ERBB2 level,"ZR75, 6 h",98
same,P-ERBB3 level,"ZR75, 6 h",116#
same,P-ERBB4 level,"ZR75, 6 h",101
same,P-ERK level,"ZR75, 6 h",99
same,P-JAK2 level,"ZR75, 6 h",99
same,P-JNK level,"ZR75, 6 h",88
same,P-KIT level,"ZR75, 6 h",100
same,P-MET level,"ZR75, 6 h",99
same,P-NFkB level,"ZR75, 6 h",98
same,P-PDGFRb level,"ZR75, 6 h",98
same,P-PERK level,"ZR75, 6 h",111
same,P-S2448 (mTOR) level,"ZR75, 6 h",98
same,P-S2481 (mTOR) level,"ZR75, 6 h",98
same,P-T308 (AKT) level,"ZR75, 6 h",106
same,P-Y694 (STAT5) level,"ZR75, 6 h",99
same,P-Y705 (STAT3) level,"ZR75, 6 h",99
same,P-eIF2a level,"ZR75, 6 h",109
same,P-p38 level,"ZR75, 6 h",100
same,P-p70 T389 level,"ZR75, 6 h",101
same,PD-L1 level,"ZR75, 6 h",99
same,PD-L2 level,"ZR75, 6 h",104
same,PDGFRb level,"ZR75, 6 h",100
same,PERK level,"ZR75, 6 h",99
same,PP1 level,"ZR75, 6 h",99
same,PTEN level,"ZR75, 6 h",101
same,STAT3 level,"ZR75, 6 h",99
same,STAT5 level,"ZR75, 6 h",99
same,TAZ level,"ZR75, 6 h",102
same,ULK1 level,"ZR75, 6 h",100
same,Y416 (c-SRC) level,"ZR75, 6 h",102
same,Y527 (c-SRC) level,"ZR75, 6 h",98
same,YAP level,"ZR75, 6 h",99
same,c-KIT level,"ZR75, 6 h",100
same,c-MET level,"ZR75, 6 h",101
same,c-SRC level,"ZR75, 6 h",101
same,eIF2a level,"ZR75, 6 h",100
same,mTOR level,"ZR75, 6 h",100
same,p38 level,"ZR75, 6 h",99
same,p70 S6K level,"ZR75, 6 h",99
same,P-ERBB3 level,"ZR75, 6 h, listed as Palbo",116
same,increase in the levels of cyclin D and cyclin E,"ZR75 and MCF7, 3 h and 6 h, trend",5-10%
